Tested on: mannitol dehydrogenase, MDH
Test: Stabilization of proteins during freeze drying
Type: biochemical
Conditions: MDH 0.8 mg/ml, 20-1500 mM αGG in 100 mM Tris/HCl buffer pH 7.0, lyophilized over-night and redissolved; irrespective of the added αGG concentration; 2% without any stabilizer
Protocol: The protein of interest (e.g. mannitol dehydrogenase, MDH) was incubated at a concentration of 0.8 mg/ml in the presence of 0, 20, 50, 100, 500, 1000 or 1500 mM αGG in 100 mM Tris/HCl buffer, pH 7.0. The samples were lyophilized over-night and dissolved in the same buffer again. The specific enzyme activity was determined, using appropriate assays for the corresponding enzyme as described elsewhere (Slatner M. et al., Biochemistry 38: 10489-10498), before and after freeze drying. Without any stabilizer added the enzymatic activity of MDH dropped down to 2% after freeze drying, whereas αGG is able to maintain enzymatic activity up to 48% irrespective of the added αGG concentration.

enzymatic activity of MDH maintained after freeze drying: up to 48%
Structure (SMILES): OCC(CO)O[C@H]1O[C@H](CO)[C@@H](O)[C@H](O)[C@H]1O [αGG, 2-O-glyceryl-α-D-glucopyranoside]

Reference: US10683525B2, “Method for producing 2-O-glyceryl-alpha-D-glucopyranoside” (Technische Universität Graz, priority 2006, dated 2020)
